Reference: US20240400615A1, “PEPTIDE HAVING ANTI-OBESITY ACTIVITY AND USES THEREOF” (CAREGEN CO., LTD., priority 2021, published 2024)

Legend:
Type in all cases: cell-based
Tbx1 = assay: RT-PCR of thermogenesis-related gene Tbx1 in adipocytes; conditions: 3T3-L1 adipocytes, 5 μM and 50 μM peptide, 72 hours, GAPDH internal control
Description: (§1) First, in order to differentiate pre-adipocytes into adipocytes, pre-adipocytes and 3T3-L1 cells purchased from the American Type Culture Collection (ATCC) were cultured in DMEM including 2% fetal bovine serum (FBS). In order to differentiate 3T3-L1 cells into adipocytes, the culture was dispensed into a 12-well plate at a density of 1×10^5 cells/well, and 2 days after the time-point of achieving the confluent growth (day 0), the culture medium was replaced with DMEM medium including 10% FBS, 10 μg/mL insulin, 0.5 mM isobutylmethylxanthine (IBMX)(Sigma, USA), and 1 μM dexamethasone (Sigma. USA), and cultured. After 2 days (day 2), the culture medium was replaced with DMEM medium including 10% FBS and 10 μg/mL insulin and cultured, and 3 days thereafter (day 5), the culture medium was replaced with a medium including only 10% FBS Two days thereafter (day 7), the cells were named 3T3-L1 adipocytes and cultured under the conditions of 37° C., 5% CO2 environment. The adipocytes which were induced to differentiate for 10 days were used in subsequent experiments.
(§2) In order to confirm whether the peptide of the present invention has the effect of preventing or treating obesity, the levels of mRNA expression of PGC1α1, Tbx1, FGF21, and UCP1, which are thermogenesis-related genes in brown adipocytes, were examined. […]

HSL = assay: RT-PCR of lipolysis-related gene HSL in adipocytes; conditions: 3T3-L1 adipocytes, 5 μM and 50 μM peptide, 72 hours, GAPDH internal control
Description: as §1
(§3) In adipocytes, in order to confirm whether the peptide of the present invention has the effect of activating the lipolysis-promoting cell signaling pathway. mRNA expression levels of HSL, ATGL, and perilipin1 genes associated with lipolysis promotion were examined. […]

PGC1α = assay: RT-PCR of thermogenesis-related gene PGC1α in adipocytes; conditions: 3T3-L1 adipocytes, 5 μM and 50 μM peptide, 72 hours, GAPDH internal control
Description: as §1, §2

UCP1 [1] = assay: Western blot of thermogenesis-related protein UCP1 in adipocytes; conditions: 3T3-L1 adipocytes, 5 μM and 50 μM peptide, 24 hours
Description: as §1, with “The adipocytes which were induced to differentiate for 10 days were used in subsequent experiments.” left out
(§4) Specifically, the adipocytes obtained in Preparation Example 1 were treated with 5 μM and 50 μM of the peptide of SEQ ID NO: 1, respectively. […] Then, the protein was quantified and subjected to Western blotting was performed using an anti-PRDM16 antibody (Cell signaling technology (CST), USA) and an anti-UCP1 antibody (Abcam, England).

PRDM16 = assay: Western blot of thermogenesis-related protein PRDM16 in adipocytes; conditions: 3T3-L1 adipocytes, 5 μM and 50 μM peptide, 24 hours
Description: as §1, with “The adipocytes which were induced to differentiate for 10 days were used in subsequent experiments.” left out
as §4

3T3-L1 adipocytes = assay: Glycerol colorimetric assay, free glycerol released from adipocytes; conditions: 5 μM and 50 μM peptide, 48 hours, supernatant
Description: as §1, with “The adipocytes which were induced to differentiate for 10 days were used in subsequent experiments.” left out
Specifically, adipocytes differentiated in Preparation Example 1 were treated with the peptide of SEQ ID NO: 1 at concentrations of 5 μM and 50 μM, and treated with 20 nM of TNFα, as a positive control, followed by culturing for 48 hours. After obtaining the supernatant, the amount of glycerol was measured using a glycerol colorimetric assay kit (Cayman Chemical, USA).

perilipin1 = assay: RT-PCR of lipolysis-related gene perilipin1 in adipocytes; conditions: 3T3-L1 adipocytes, 5 μM and 50 μM peptide, 72 hours, GAPDH internal control
Description: as §1, §3

FGF21 = assay: RT-PCR of thermogenesis-related gene FGF21 in adipocytes; conditions: 3T3-L1 adipocytes, 5 μM and 50 μM peptide, 72 hours, GAPDH internal control
Description: as §1, §2

UCP1 [2] = assay: RT-PCR of thermogenesis-related gene UCP1 in adipocytes; conditions: 3T3-L1 adipocytes, 5 μM and 50 μM peptide, 72 hours, GAPDH internal control
Description: as §1, §2

pHSL = assay: Western blot of pHSL in adipocytes; conditions: 3T3-L1 adipocytes, 5 μM and 50 μM peptide, 1 hour, Western blot with anti-pHSL antibody
Description: as §1, with “The adipocytes which were induced to differentiate for 10 days were used in subsequent experiments.” left out
Specifically, the adipocytes differentiated in Preparation Example 1 were treated with 5 μM and 50 μM of the peptide of SEQ ID NO: 1, and after 1 hour, the cells were recovered and treated with a cell lysis buffer to obtain a lysate. Then, the protein was quantified and subjected to Western blotting using an anti-pHSL antibody (Cell Signaling Technology (CST), USA).

ATGL = assay: RT-PCR of lipolysis-related gene ATGL in adipocytes; conditions: 3T3-L1 adipocytes, 5 μM and 50 μM peptide, 72 hours, GAPDH internal control
Description: as §1, §3

Q: Which “mRNA expression of Tbx1 gene” value (Tbx1) does the source give for DYNMKWIHVY [SEQ ID NO: 1] here?
A: increased

Q: What about the “mRNA expression of HSL gene” value (HSL) of the same sequence?
A: increased

Q: And the “mRNA expression of PGC1α gene” value (PGC1α)?
A: increased

Q: What about the “expression of UCP1 protein” value (UCP1 [1]) of the same sequence?
A: increased

Q: And the “expression of PRDM16 protein” value (PRDM16)?
A: increased

Q: What about the “amount of glycerol released” value (3T3-L1 adipocytes) of the same sequence?
A: increased in a concentration-dependent manner

Q: What about the “mRNA expression of perilipin1 gene” value (perilipin1) of the same sequence?
A: increased

Q: What about the “mRNA expression of FGF21 gene” value (FGF21) of the same sequence?
A: increased

Q: What about the “mRNA expression of UCP1 gene” value (UCP1 [2]) of the same sequence?
A: increased

Q: And the “phosphorylation of HSL protein” value (pHSL)?
A: increased

Q: What about the “mRNA expression of ATGL gene” value (ATGL) of the same sequence?
A: increased
